Where a SMILES comes first, the peptide text is derived from it. [ ]: non-standard residue; d: D form. The star is where a group is joined. X1 = O=C(c1ccc2ccccc2c1O)*; Dap = NC[CH](N)C(=O)O; Aib = CC(C)(N)C(=O)O
How the values were obtained:
wild type hGH = wild type hGH (Homo sapiens, UniProt P01241); experiment: Binding capacity for wild type hGH of ligands synthesized on Fractogel Amino (1 mL columns); conditions: ligand on Fractogel Amino; for Measured binding capacity (mg hGH/mL resin): load 5 mg/mL hGH in 25 mM Tris-HCl pH 7.50, 0.5 mL/min, elution gradient 1M NaCl/25 mM Tris pH 7.5
Description: (§1) were stepwise synthesized on Fractogel Amino (Merck) with amine loading 0.16 mmol/g and particle size 40-90 μm. The resins were washed thoroughly with DMF, DCM, and ethanol and packed in 1 mL columns and washed with 0.2 M NaOH and then with 20% ethanol, and equilibrated with 25 mM Tris-HCl at pH=7.50 (buffer A).
Binding capacity for wild type hGH was measured for each resin sample by • a) loading the column with a 5 mg/mL solution of hGH in buffer A at a flow rate of 0.5 mL/min, • b) washing the column with at least 10 column volumes of buffer A until a steady low UV absorbance of the buffer leaving the column was observed, • c) eluting the protein by applying a gradient of 1M NaCl/25 mM Tris at pH=7.5 (buffer B) • d) cleaning the column with 0.2 M NaOH, then with buffer B, and then with buffer A.
The binding capacity was calculated by integrating the UV signal during step (c) and indicated for each ligand above.

hGH [1] = biological target: T1, hGH (Homo sapiens, UniProt P01241); experiment: Resin selectivity test with hGH fermentation broth, judged by SDS page gels of the eluate; conditions: ligand on Fractogel Amino, hGH fermentation broth diluted five times with buffer A
T1 construct: made in house; host or cells: E. coli
Description: as §1
Resin selectivity was tested by • (a) loading the column with hGH fermentation broth diluted five times with buffer A • (b) washing the column with at least 10 column volumes of buffer A until a steady low UV absorbance of the buffer leaving the column was observed, • (c) eluting the protein by applying a gradient of buffer B • (d) cleaning the column with 0.2 M NaOH, then with buffer B, and then with buffer A.
“Observed selectivity” was judged by SDS page gels of the eluate […] and indicated for each ligand above. An example of a resin with “very good” selectivity (ligand L11 on Fractogel) and an example of a resin with “moderate” selectivity (ligand L6 on Fractogel) are given in FIG. 3.

hGH [2] = biological target: T1, hGH; experiment: Evaluation of ligand synthesized directly on Fractogel in 5 mL scale (capacity, recovery, purity); type: binding; conditions: load 50 mM BisTris pH 6.25, elution 50 mM BisTris pH 8.00 gradient; for Dynamic 10% BT capacity for micro-filtrate hGH / Dynamic 10% BT capacity for pure hGH: 2 mL/min
Description: Ligand L14 from Example 1 was synthesized directly on Fractogel. The resin was evaluated in 5 mL scale.
Load buffer: 50 mM BisTris at pH 6.25
Elution buffer: 50 mM BisTris at pH 8.00 gradient
Temperature: 15° C. (20° measured by Äkta)
Ligand L16 from Example 1 was synthesized directly on Fractogel Amino. This resin was evaluated in 5 mL scale.

hGH [3] = biological target: T1, hGH; experiment: Affinity purification of hGH from E. coli micro-filtrate with ligand L10 resin (purity and recovery); conditions: load 50 mM BisTris-HCl pH 6.25
Description: (§2) Ligand L10 from Example 1 was synthesized step-wise on Fractogel Amino M (Supplied by Merck KgaA), and the resulting affinity resin was packed in Tricorn 5/50, 1 mL (GE Healthcare).
(§3) hGH micro-filtrate buffer: 2.61 mg/mL hGH E. coli micro-filtrate from hGH harvest. A frozen 15 mL sample was thawed at room temperature and filtered using a syringe-driven filter ([…]). Diluted to 0.52 mg hGH/mL with Buffer A.
An elution buffer of 200 mM Tris-HCl, pH 8.00, 1 M NaCl, 30% propylene glycol results in high recovery of hGH. This elution buffer and the aforementioned 50 mM BisTris-HCl, pH 6.5 load buffer was used. The column was overloaded with hGH. The results from an experiment using these conditions are shown below:
The loading buffer was changed to 50 mM BisTris-HCl at pH 6.25 and different elution buffers at pH 7.25, 7.50 and 8.00 were tested.
Chromatograms and gels are shown in FIG. 8 for the run with the following conditions: Load buffer: 50 mM BisTris at pH 6.25 and Elution buffer: 50 mM BisTris at pH 8.00

hGH [4] = experiment: Dynamic 10% BT capacity of ligand L10 on Fractogel Amino M; type: binding, human; conditions: load 50 mM BisTris-HCl pH 6.50, 0.5 mL/min (150 cm/h), 15° C.
Description: as §2
(§4) hGH standard: hGH was dissolved to 20 mg/mL in freshly made 50 mM NH41-1CO3, then diluted to 2 or 3.3 mg/mL with Buffer A (50 mM Tris-HCl, pH=7.50, T=15° C. (20° C. in Äkta)).
as §3
(§5) Buffer A1: 50 mM BisTris-HCl, pH=6.50, T=15° C. (20° C. in Äkta), flow 0.5 mL/min (150 cm/h)
(§6) Buffer Z1: 25 mM Tris-HCl, 1M NaCl, pH=7.50, T=15° C. (20° C. in Äkta), flow 0.5 mL/min (150 cm/h)

hGH [5] = biological target: T1, hGH; experiment: as above; type: binding; conditions: load 50 mM BisTris-HCl pH 6.50, 0.5 mL/min (150 cm/h), 15° C.
Description: as §2, §4, §3, §5, §6

Sequence of wild type hGH (P01241 27-217): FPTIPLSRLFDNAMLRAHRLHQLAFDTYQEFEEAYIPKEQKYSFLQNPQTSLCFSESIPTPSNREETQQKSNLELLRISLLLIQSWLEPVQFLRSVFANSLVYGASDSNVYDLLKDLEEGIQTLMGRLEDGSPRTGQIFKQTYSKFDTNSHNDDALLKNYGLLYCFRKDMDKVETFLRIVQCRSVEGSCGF
T1 sequence (P01241 27-217): as above

| SMILES | Measured binding capacity (mg hGH/mL resin) (wild type hGH) | Observed selectivity (hGH [1]) | other results |
| --- | --- | --- | --- |
| NCCCC[C@H](N)C(=O)N[C@@H](Cc1ccccc1)C(=O)N[C@@H](CNC(=O)c1c2c(nc3ccccc13)CCCC2)C(=O)O [L14] | >5 mg hGH/mL resin | Good | Purity (hGH [2]): 71%; Dynamic 10% BT capacity for micro-filtrate hGH (hGH [2]): 6.7 mg/mL; Dynamic 10% BT capacity for pure hGH (hGH [2]): 16.3 mg/mL |
| Cc1nn(-c2ccccc2)nc1C(=O)NC[C@H](NC(=O)[C@H](Cc1ccccc1)NC(=O)[C@@H](N)Cc1c[nH]c2ccccc12)C(=O)O [L5] | 2 mg hGH/mL resin | Good |  |
| CC[C@H](C)[C@H](N)C(=O)N[C@@H](Cc1ccccc1)C(=O)N[C@@H](CNC(=O)c1c2c(nc3ccccc13)CCCC2)C(=O)O [L10] | 3 mg hGH/mL resin | Very good | Purity of eluate (hGH [3]; Elution pH 7.25): 91%; Purity of eluate (hGH [3]; Elution pH 7.50): 85%; Purity of eluate (hGH [3]; Elution pH 8.00): 85%; dynamic 10% BT capacity for hGH micro-filtrate (hGH [4]): 3.22 mg/mL; Dynamic 10% BT capacity (purified hGH) (hGH [5]): 6.7 mg/mL |
| CC(C)(NC(=O)C(CNC(=O)c1ccc2ccccc2c1O)NC(=O)C(Cc1ccc(O)cc1)NC(=O)C(N)CCCNC(=N)N)C(=O)O (stereo not shown) [L19] (H-RY[Dap](X1)[Aib]-OH; configuration not given here) |  |  | binding capacity (wild type hGH; same procedures as Example 1): < 0.5 mg/mL |
| N[C@@H](Cc1ccc(O)cc1)C(=O)N[C@@H](Cc1ccccc1)C(=O)N[C@@H](CNC(=O)C1c2ccccc2Oc2ccccc21)C(=O)O [L3] | 5 mg hGH/mL resin | Moderate |  |
| N=C(N)NCCC[C@H](N)C(=O)N[C@@H](Cc1ccc(O)cc1)C(=O)N[C@@H](CNC(=O)C1c2ccccc2Oc2ccccc21)C(=O)O [L1] | 14 mg hGH/mL resin | Moderate |  |
| CC(O)C(N)C(=O)NC(CC(=O)O)C(=O)NC(CNC(=O)c1ccc2nccnc2c1)C(=O)O (stereo not shown) [L17] | <0.5 mg hGH/mL resin |  |  |
| O=C(NC[C@H](NC(=O)[C@H]1CCCN1C(=O)[C@H]1CCCN1)C(=O)O)c1c2c(nc3ccccc13)CCCC2 [L12] | 2 mg hGH/mL resin | Good |  |
| CC[C@@H](C)[C@H](NC(=O)[C@@H](N)Cc1c[nH]c2ccccc12)C(=O)N[C@@H](CNC(=O)c1scc(S(=O)(=O)c2ccccc2)c1N)C(=O)O [L7] | 2 mg hGH/mL resin | Good |  |
| N[C@@H](Cc1ccccc1)C(=O)N[C@@H](Cc1ccccc1)C(=O)N[C@@H](CNC(=O)C1c2ccccc2Oc2ccccc21)C(=O)O [L4] | 1 mg hGH/mL resin | Good |  |
| CC[C@@H](C)[C@H](N)C(=O)N[C@@H](CCCCN)C(=O)N[C@@H](CNC(=O)c1c(C)nc2ccccn12)C(=O)O [L16] | >10 mg hGH/mL resin | Moderate | Purity (hGH [2]): 70%; Dynamic 10% BT capacity for micro-filtrate hGH (hGH [2]): 5.7 mg/mL; Dynamic 10% BT capacity for pure hGH (hGH [2]): 11.9 mg/mL |
| NCCCC[C@H](NC(=O)[C@@H](N)Cc1ccccc1)C(=O)N[C@@H](CNC(=O)c1scc(S(=O)(=O)c2ccccc2)c1N)C(=O)O [L6] | 13 mg hGH/mL resin | Moderate |  |
| N=C(N)NCCC[C@H](NC(=O)[C@@H](N)Cc1ccccc1)C(=O)N[C@@H](CNC(=O)C1c2ccccc2Oc2ccccc21)C(=O)O [L2] | 7 mg hGH/mL resin | Good |  |
| Cc1nc2ccccn2c1C(=O)NC[C@H](NC(=O)[C@H](CCCNC(=N)N)NC(=O)[C@@H](N)Cc1ccccc1)C(=O)O [L15] | >5 mg hGH/mL resin | Good |  |
| N[C@@H](Cc1ccccc1)C(=O)N[C@@H](Cc1ccccc1)C(=O)N[C@@H](CNC(=O)c1c2c(nc3ccccc13)CCCC2)C(=O)O [L11] | 2 mg hGH/mL resin | Very good |  |
| N=C(N)NCCC[C@H](N)C(=O)N[C@@H](Cc1ccccc1)C(=O)N[C@@H](CNC(=O)C1CC(=O)c2ccccc21)C(=O)O (stereo partly shown) [L9] | 10 mg hGH/mL resin | Good |  |
| CC[C@H](C)[C@H](N)C(=O)N[C@@H](Cc1ccc(O)cc1)C(=O)N[C@@H](CNC(=O)c1scc(S(=O)(=O)c2ccccc2)c1N)C(=O)O [L8] | 6 mg hGH/mL resin | Moderate |  |
| Cc1ccc([N+](=O)[O-])c(C(=O)NCC(NC(=O)C(Cc2c[nH]cn2)NC(=O)C(N)CC(=O)O)C(=O)O)c1 (stereo not shown) [L18] | <0.5 mg hGH/mL resin |  |  |
| C[C@@H](O)[C@H](NC(=O)[C@@H](N)CCCNC(=N)N)C(=O)N[C@@H](CNC(=O)c1c2c(nc3ccccc13)CCCC2)C(=O)O [L13] | >10 mg hGH/mL resin | Moderate |  |
